Experimental data: US20170100320A1, “COMPOSITION FOR EXTERNAL USE SKIN PREPARATION, CONTAINING THIOREDOXIN” (Amorepacific Corporation, priority 2012, published 2017)

Tests used:
Assay type in all cases: cell-based
[1] = target: T1, 5α-reductase in HEK293-5αR2 cells (Homo sapiens, UniProt P31213); experiment: Inhibition of 5α-reductase activity ([14C]testosterone to [14C]dihydrotestosterone conversion); conditions: 2 hours incubation at 37° C.; for Conversion (%): testosterone to DHT
T1 construct: 3xFLAG; expressed in transfected cells; host or cells: HEK293 (Human Embryonic Kidney 293)
T1 sequence (P31213 1-254): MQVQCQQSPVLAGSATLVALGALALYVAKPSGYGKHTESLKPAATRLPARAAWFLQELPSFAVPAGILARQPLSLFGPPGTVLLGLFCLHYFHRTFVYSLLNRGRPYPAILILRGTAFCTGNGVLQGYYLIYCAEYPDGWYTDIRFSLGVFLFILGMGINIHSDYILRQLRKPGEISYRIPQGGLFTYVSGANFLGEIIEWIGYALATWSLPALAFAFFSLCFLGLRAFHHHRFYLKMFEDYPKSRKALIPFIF
Description: In order to examine the effect of inhibiting 5α-reductase activity, the ratio of [^14C]testosterone-to-[^14C]dihydrotestosteron conversion in Human Embryonic Kidney 293(HEK293)-5αR2 cells was measured. HEK293 cells transfected with plasmid p3×FLAG-CMV™-5αR2 were added to a 24-well plate at a density of 2.5×10^5cells/well and cultured (Park et al., 2003, J. Dermatological Science. Vol. 31, pp. 91-98). The next day, the medium was replaced with a fresh medium containing an enzyme substrate and an inhibitor. As the substrate of the medium, 0.05 μCi [^14C]testosterone (Amersham Pharmacia Biotech, UK) was used.
In order to measure the degree of inhibition of 5α-reductase activity, thioredoxin was added to the cells which were then incubated in a 5% CO2 incubator at 37° C. for 2 hours. At the same time, a medium containing no thioredoxin was used as a negative, and a medium containing finasteride was used as a positive control. Next, the culture medium was collected, and steroid was extracted with 800 μl of ethyl acetate. The upper organic solvent layer was separated and dried, and the remaining material was dissolved in 50 μl of ethyl acetate and developed on silica plastic sheet kieselgel 60 F254 using ethyl acetate-hexane (1:1) as a developing solvent.
The plastic sample was dried in air, and the amount of isotopes was measured using a Vas system. Specifically, the dried plastic sheet together with an X-ray film was placed in a Vas cassette, and after 1 week, the amounts of the testosterone and dihydrotestosterone (DHT) isotopes were measured, and then the percent conversion and the percent inhibition were measured using the following equations 1 and 2, respectively.
Conversion (%)=radioactivity in the DHT region/total radioactivity×100
Inhibition (%)=(conversion of control−conversion of sample)/conversion of control×100

fibroblasts = experiment: Stimulation of collagen biosynthesis (procollagen type (I) ELISA); conditions: 24 hours; relative to control = 100%; TGF-beta 10 ng/ml
Description: The effect of thioredoxin of the present invention on the stimulation of collagen biosynthesis was measured in comparison with TGF-beta.
First, fibroblasts were seeded into a 24-well plate at a density of 10^5cells/well and cultured in serum-free DMEM medium for 24 hours to a confluence of about 90%. Then, the cells were treated with each of a solution of thioredoxin of the present invention and 10 ng/ml of TGF-beta dissolved in serum-free medium and incubated in a CO2 incubator for 24 hours. The supernatants of the cell cultures were collected and the amount of procollagen therein was measured using a procollagen type (I) ELISA kit. The values of collagen synthesis (%) in Table 8 are expressed as percentages relative to the control taken as 100%.

human keratinocytes = experiment: Stimulation of keratinocyte differentiation (cornified envelope protein, absorbance 340 nm); conditions: 5 days culture; thioredoxin 5 ppm; low-calcium negative control = 100
Description: In order to examine the effect of thioredoxin on the stimulation of differentiation of keratinocytes, the amount of cornified envelope (CE) protein produced during the differentiation of keratinocytes was measured by absorbance in the following manner.
Specifically, human keratinocytes, isolated from the […] of newborns and primarily cultured, were placed in a culture flask and attached to the bottom. Then, the cells were cultured with a medium containing 5 ppm of thioredoxin for 5 days until the cells reached to a confluence of about 70-80%. At the same time, a low calcium (0.03 mM)-treated group and a high calcium (1.2 mM)-treated group were used as a negative control group and a positive control group, respectively. Then, the cultured cells were harvested and washed with PBS (phosphate buffered saline). Then, the cells were sonicated in 1 ml of 10 mM Tris-HCl (pH 7.4) containing 2% SDS (sodium dodecyl sulfate) and 20 mM DTT (dithiothreitol), boiled and centrifuged. The precipitate was suspended in 1 ml of PBS, and the absorbance at 340 nm was measured. Separately, a portion of the solution following the sonication was taken, and the protein content thereof was measured as a reference for evaluating the degree of differentiation of the cells.

| Molecule | Conversion (%) [1] [%] | Collagen synthesis (%) (fibroblasts) | Inhibition (%) ([1]; relative to conversion of control) | Degree (%) of differentiation of keratinocytes (human keratinocytes) [%] |
| --- | --- | --- | --- | --- |
| CC(C)(C)NC(=O)[C@H]1CC[C@H]2[C@@H]3CC[C@H]4NC(=O)C=C[C@]4(C)[C@H]3CC[C@]12C [Positive control, finasteride, reference compound] | 27.6 |  |  |  |
| TGF-β [reference compound] |  | 183.5 |  |  |
| Thioredoxin | 15.9 | 196.2 | 60.8 | 295 |
